# Test results taken from article PMC6360136 (Investigational new drugs, 2018).
# Counter-ions that a name gives are not always drawn.
# Legend:
# [1] = test system: colon cancer xenograft; conditions: colon cancer xenograft mice model, 0.25 mg/kg daily dosing ref 18, 19; cited from earlier work
# [2] = test system: PANC-1 cells; assay: Cell viability assay; format: cell-based, human; conditions: Homo sapiens, PANC-1, 48 h
# [3] = test system: EC46 cells; assay: Cell viability assay; format: cell-based, human; conditions: Homo sapiens, Pancreatic cancer cell, 48 h
# [4] = test system: EC68 cells; assay: Cell viability assay; format: cell-based, human; conditions: Homo sapiens, Pancreatic cancer cell, 48 h
Compound,tumor growth [1],IC50 [2] [µM],IC50 [3] [µM],IC50 [4] [µM]
"CC[C@H](C)[C@H]1C(=O)N2CCC[C@@H]2C(=O)O[C@H](C(C)(C)C)C[C@@H](C)C[C@H](O)C(C)(C)C2=N[C@@H](CCC(=O)N[C@@H](Cc3ccc(OC)cc3)C(=O)N(C)[C@@H](C)C(=O)N1C)CS2 [Apratoxin S8, apratoxin S8]",significantly retarded tumor growth,–,–,–
"C#Cc1cccc(Nc2ncnc3cc(OCCOC)c(OCCOC)cc23)c1 [erlotinib hydrochloride, reference compound]",–,13.1,2.41,8.96
